pIC50: −log10 of the molar value. “Also recorded” adds a separate entry of the source.
Assays:
rats [1] = conditions: rat, in vivo
[2] = test system: HVA calcium channels subtypes (L, N, P/Q and R); type: cell-based, mammalian
synaptosomes [3] = type: cell-based
[4] = test system: N-type calcium channels on neuronal pre-synaptic membrane; type: cell-based
synaptosomes [5] = type: cell-based; remark: listed apart in the source
N-type calcium channels = biological target: T1, N-type calcium channels (Homo sapiens, UniProt Q00975); type: cell-based, mammalian
T1 construct: expressed in transfected cells; host or cells: HEK cells
T1 sequence (Q02641 whole entry): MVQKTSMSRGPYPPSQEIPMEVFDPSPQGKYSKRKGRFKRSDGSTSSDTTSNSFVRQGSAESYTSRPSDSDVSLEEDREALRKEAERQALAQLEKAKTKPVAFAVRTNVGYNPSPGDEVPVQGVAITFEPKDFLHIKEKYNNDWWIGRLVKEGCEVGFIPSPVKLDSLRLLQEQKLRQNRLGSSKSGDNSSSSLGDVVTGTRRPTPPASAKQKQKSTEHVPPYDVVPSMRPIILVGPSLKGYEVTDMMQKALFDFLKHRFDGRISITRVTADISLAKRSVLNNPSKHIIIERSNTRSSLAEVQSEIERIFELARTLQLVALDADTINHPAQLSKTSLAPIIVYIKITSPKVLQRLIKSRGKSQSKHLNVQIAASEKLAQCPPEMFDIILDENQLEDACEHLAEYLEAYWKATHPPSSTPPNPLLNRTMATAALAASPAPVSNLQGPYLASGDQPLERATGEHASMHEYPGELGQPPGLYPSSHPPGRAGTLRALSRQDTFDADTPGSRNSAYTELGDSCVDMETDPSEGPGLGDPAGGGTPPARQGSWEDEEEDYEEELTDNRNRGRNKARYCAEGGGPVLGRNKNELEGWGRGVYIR
T1 sequence (P54289 957-1103, further chain): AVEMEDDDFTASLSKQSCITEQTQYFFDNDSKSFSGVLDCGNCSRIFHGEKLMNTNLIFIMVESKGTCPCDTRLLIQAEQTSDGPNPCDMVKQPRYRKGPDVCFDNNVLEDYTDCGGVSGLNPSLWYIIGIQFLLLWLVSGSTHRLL
T1 sequence (P54289 25-956, further chain): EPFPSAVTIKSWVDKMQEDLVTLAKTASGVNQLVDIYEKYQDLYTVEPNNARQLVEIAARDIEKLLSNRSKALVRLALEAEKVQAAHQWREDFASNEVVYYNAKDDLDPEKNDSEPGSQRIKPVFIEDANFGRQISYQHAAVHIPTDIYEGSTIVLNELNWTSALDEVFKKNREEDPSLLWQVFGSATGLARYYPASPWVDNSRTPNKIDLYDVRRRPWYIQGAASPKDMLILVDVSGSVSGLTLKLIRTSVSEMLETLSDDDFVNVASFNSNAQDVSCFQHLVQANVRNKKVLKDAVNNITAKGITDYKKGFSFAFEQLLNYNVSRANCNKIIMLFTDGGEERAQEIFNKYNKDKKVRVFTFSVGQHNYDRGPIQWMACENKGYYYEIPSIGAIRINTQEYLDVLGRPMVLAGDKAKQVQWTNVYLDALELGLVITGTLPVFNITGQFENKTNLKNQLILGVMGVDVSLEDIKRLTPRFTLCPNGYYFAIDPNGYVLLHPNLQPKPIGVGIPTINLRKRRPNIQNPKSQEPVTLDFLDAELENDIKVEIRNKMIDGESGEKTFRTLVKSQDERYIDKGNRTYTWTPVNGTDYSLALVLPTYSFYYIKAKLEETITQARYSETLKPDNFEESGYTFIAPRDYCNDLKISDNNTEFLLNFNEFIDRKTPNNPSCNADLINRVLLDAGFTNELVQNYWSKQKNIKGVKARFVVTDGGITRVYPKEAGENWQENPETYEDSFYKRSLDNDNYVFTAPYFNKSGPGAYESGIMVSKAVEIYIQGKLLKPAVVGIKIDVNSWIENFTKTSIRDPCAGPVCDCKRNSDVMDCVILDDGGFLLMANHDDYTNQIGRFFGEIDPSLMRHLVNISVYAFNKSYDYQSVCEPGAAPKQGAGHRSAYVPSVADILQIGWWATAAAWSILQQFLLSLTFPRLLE
T1 sequence (Q00975 whole entry): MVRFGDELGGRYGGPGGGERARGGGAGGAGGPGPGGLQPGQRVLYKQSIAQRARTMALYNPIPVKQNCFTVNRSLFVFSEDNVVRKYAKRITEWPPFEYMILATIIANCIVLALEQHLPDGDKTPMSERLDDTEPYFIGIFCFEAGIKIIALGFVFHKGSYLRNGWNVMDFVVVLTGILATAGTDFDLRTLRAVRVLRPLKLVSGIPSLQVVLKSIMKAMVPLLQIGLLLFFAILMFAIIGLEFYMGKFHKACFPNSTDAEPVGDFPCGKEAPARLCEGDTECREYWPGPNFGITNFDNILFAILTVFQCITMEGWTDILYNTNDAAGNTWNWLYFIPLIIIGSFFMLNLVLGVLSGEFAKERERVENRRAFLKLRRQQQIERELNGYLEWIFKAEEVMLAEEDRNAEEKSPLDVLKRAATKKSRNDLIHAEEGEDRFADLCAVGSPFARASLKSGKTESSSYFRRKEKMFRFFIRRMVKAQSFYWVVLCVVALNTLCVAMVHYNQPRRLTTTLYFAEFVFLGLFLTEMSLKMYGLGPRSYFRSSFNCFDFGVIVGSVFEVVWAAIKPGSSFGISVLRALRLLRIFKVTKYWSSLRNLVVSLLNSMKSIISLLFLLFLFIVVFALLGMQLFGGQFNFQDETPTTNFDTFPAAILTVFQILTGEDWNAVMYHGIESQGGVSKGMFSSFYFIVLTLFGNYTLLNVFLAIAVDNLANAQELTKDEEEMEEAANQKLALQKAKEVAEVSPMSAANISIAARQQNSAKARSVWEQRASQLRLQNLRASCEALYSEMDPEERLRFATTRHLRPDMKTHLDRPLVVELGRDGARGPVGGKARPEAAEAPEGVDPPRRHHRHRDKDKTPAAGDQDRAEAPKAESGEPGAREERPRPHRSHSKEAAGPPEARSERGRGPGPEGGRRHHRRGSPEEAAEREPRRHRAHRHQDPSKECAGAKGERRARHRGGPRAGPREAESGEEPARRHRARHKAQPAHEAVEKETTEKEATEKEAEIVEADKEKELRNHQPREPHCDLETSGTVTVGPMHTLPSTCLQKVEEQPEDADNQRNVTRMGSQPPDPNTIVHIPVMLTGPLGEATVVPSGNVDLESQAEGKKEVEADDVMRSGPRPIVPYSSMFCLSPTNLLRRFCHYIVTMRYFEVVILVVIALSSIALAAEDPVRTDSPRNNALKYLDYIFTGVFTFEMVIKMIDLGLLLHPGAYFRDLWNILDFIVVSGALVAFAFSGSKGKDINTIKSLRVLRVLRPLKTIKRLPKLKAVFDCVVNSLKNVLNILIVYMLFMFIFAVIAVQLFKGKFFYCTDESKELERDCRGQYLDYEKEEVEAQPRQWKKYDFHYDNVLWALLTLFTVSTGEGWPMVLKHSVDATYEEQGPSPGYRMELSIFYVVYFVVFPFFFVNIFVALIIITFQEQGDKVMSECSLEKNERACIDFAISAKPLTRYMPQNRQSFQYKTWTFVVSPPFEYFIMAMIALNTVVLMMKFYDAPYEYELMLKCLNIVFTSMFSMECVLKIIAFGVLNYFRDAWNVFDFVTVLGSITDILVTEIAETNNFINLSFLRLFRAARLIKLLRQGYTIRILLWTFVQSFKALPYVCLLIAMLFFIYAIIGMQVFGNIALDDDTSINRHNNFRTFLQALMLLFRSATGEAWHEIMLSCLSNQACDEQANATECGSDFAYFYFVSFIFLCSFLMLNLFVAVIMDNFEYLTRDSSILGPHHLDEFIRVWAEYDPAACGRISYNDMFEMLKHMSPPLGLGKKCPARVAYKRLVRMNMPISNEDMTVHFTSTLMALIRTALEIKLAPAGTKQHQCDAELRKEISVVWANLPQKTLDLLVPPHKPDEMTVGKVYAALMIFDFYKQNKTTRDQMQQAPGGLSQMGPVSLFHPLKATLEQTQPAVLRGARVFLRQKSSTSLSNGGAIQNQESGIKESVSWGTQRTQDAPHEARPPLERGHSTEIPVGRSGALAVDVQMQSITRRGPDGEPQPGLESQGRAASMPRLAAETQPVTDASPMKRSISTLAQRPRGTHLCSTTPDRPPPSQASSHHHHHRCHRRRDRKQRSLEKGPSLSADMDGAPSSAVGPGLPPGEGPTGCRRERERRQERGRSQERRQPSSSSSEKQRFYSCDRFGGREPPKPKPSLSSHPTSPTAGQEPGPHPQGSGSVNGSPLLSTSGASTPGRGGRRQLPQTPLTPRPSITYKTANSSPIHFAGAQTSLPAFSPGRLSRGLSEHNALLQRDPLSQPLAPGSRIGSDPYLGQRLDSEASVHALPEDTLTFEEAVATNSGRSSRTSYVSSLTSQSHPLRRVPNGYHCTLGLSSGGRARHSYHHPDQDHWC

[6] = test system: central nervous system cells; assay: Acute toxicity and electrical excitability in central nervous system cells
[7] = test system: nerve ending spinal cord of rats; type: cell-based
rats [8] = conditions: rat, in vivo; remark: listed apart in the source
[9] = Acute, chronic and neurogenic pain after intrathecal bolus pretreatment; type: in vivo; conditions: pretreatment by intrathecal bolus injection
Method: In the heat pain model the antinociceptive effect of the Phα1B lasts 24 h.

rats [10] = conditions: rat, in vivo; remark: listed apart in the source
rats [11] = conditions: rat, in vivo; remark: listed apart in the source

Question: Which “duration of significant effect on hot plate” value (rats [1]) does the source give for `CN1CC[C@]23c4c5ccc(O)c4O[C@H]2[C@@H](O)C=C[C@H]3[C@H]1C5` [morphine, reference compound] here?
Answer: The value was “up to 5 hours”.

Question: With “Phα1B (ACIPRGEICTDDCECCGCDNQCYCPPGSSLGIFKCSCAHANKYFCNRKKEKCKA)” as the compound, how does the “block of HVA calcium channel subtypes (L, N, P/Q and R)” value [2] read?
Answer: Its value is “reversible block of all four HVA calcium channels subtypes”.

Question: What about the “selectivity among HVA Ca2+ channels” value [2] of the same compound?
Answer: The value was “most potent and effective on N-type; also recorded: measurable preference for N-type channels”.

Question: And the “effect on stimulated release of glutamate” value (synaptosomes [3])?
Answer: Its value is “blocks; also recorded: blocked the release of glutamate”.

Question: And the “effect on capsaicin-induced increase of [Ca2+]i” value [4]?
Answer: Its value is “inhibition”.

Question: What about the “effect on uptake of 45Ca2+ (calcium influx on depolarized terminal)” value (synaptosomes [5]) of the same compound?
Answer: Its value is “blocks”.

Question: And the “reversibility of N-type calcium channel inhibition” value (N-type calcium channels)?
Answer: Its value is “reversibly inhibited”.

Question: What about the pIC50 (N-type calcium channels; read-out: IC50 for inhibition of N-type calcium channels) of the same compound?
Answer: Its pIC50 is 6.91.

Question: And the “effect on electrical excitability of the neurons” value [6]?
Answer: The value was “does not affect”.

Question: And the “acute toxicity to the cells tested” value ([6]; central nervous system cells)?
Answer: Its value is “not acutely toxic”.

Question: And the “efficacy to inhibit capsaicin-induced release of glutamate” value [7]?
Answer: Its value is “higher efficacy”.

Question: And the “factor by which antinociceptive doses are lower than doses associated with side-effects (DT50)” value (rats [8])?
Answer: The value was “around 15 times”.

Question: What about the “effect on acute, chronic and neurogenic pain” value [9] of the same compound?
Answer: Its value is “blocks the acute, cronic and neurogenic pain”.

Question: And the “IC50 for the antinociceptive effect” value (rats [10])?
Answer: Its value is 50.2 pmol.

Question: What about the “antinociceptive effect (pain inhibition), in words” value (rats [10]) of the same compound?
Answer: The value was “reduces the pain in rats; also recorded: more effective to inhibit pain; also recorded: higher than that induced by morphine”.

Question: And the “dose at which maximal inhibition was obtained” value (rats [10])?
Answer: The value was 87.2 pmol.

Question: And the “duration of the antinociceptive effect” value (rats [10])?
Answer: The value was “up to 24 hours”.

Question: What about the “ED50 for inhibiting the inflammatory phase of formalin test, comparison” value (rats [11]) of the same compound?
Answer: The value was “lower ED50 values”.

Question: What about the “antinociceptive effect on the inflammatory phase of formalin test” value (rats [11]) of the same compound?
Answer: Its value is “potent and longer antinociceptive effect”.

Question: And the “duration of antinociceptive effect in the heat pain model” value (rats [1])?
Answer: Its value is 24 h.

Question: What about the “efficacy against pain induced on the hot plate test” value (rats [1]) of the same compound?
Answer: Its value is “higher efficacy than conotoxins”.

Question: And the “latency period on hot plate, time points with significant increase” value (rats [1])?
Answer: Its value is “increasing significantly the latency period to 3, 4, 5, 6 and 24 hours”.

Source: US8383162B2 (priority 2006, dated 2013)
